Results as given in patent US9951058B2, “Compound, pharmaceutically acceptable salt or optical isomer thereof, method for preparing the same, and pharmaceutical composition for prevention or treatment of viral diseases containing same as active ingredient” (Korea Research Institute of Chemical Technology, priority 2012, dated 2018).
Converted amounts (≈) assume the structure as drawn.

Key:
[1] = system: coxsackievirus B3 (Cox B3); assay: Multicycle cytopathic effect (CPE) reduction assay; type: cell-based; conditions: Enterovirus B, B3, 72 h, read-out: EC50 CoxB3
[2] = system: coxsackievirus B1 (Cox B1); assay: Multicycle cytopathic effect (CPE) reduction assay; type: cell-based; conditions: Enterovirus B, B1, 72 h, read-out: EC50 CoxB1
poliovirus 3 (PV3) = assay: microbe, parasite or virus in culture; type: cell-based; conditions: Enterovirus C, 72 h, read-out: EC50 PV3
HRV 14 = assay: Cytopathic effect (CPE) inhibition assay; type: cell-based, human rhinovirus; conditions: Human rhinovirus sp., HeLa, 72 h, host cell HeLa, 3 days, MEM/2% FBS, MTT assay; read-out: EC50 HRV 14
[3] = Cytotoxicity (CC50) in multicycle CPE reduction assay, MTS; conditions: human
HRV 71 = assay: Cytopathic effect (CPE) inhibition assay; type: cell-based, human rhinovirus; conditions: Human rhinovirus sp., 72 h; host cell HeLa, 3 days, MEM/2% FBS, MTT assay; read-out: EC50 HRV 71
in vitro = conditions: human
HRV 21 = assay: Cytopathic effect (CPE) inhibition assay; type: cell-based, human rhinovirus; conditions: Human rhinovirus sp., 72 h; host cell HeLa, 3 days, MEM/2% FBS, MTT assay; read-out: EC50 HRV 21

Row | Compound | EC50 [1] [µg/mL] | EC50 [2] [µg/mL] | EC50 (poliovirus 3 (PV3)) [µg/mL] | EC50 (HRV 14) [µg/mL] | CC50 at 3 days [3] [µg/mL] | EC50 (HRV 71) [µg/mL] | CC50 (in vitro) [µg/mL] | EC50 (HRV 21) [µg/mL]
1 | CC(C)c1ccc2c(c1)OC1(O)c3c(cccc3[N+](=O)[O-])C(=O)C21NC(=O)C(=O)c1c[nH]c2ccccc12 (centres unmarked) [Example 8, N-(4b-hydroxy-7-isopropyl-4-nitro-10-oxo-9b, 10-dihydro-4bH-indeno[1,2-b]benzofuran-9b-yl)-2-(1H-indol-3-yl)-2-oxo acetamide] | 1.82 (≈ 3.56 µM) | 0.56 (≈ 1.09 µM) | 9.8 (≈ 19.2 µM) | 2.31 (≈ 4.52 µM) | > 10 | > 10 | > 10 | > 10
2 | Cc1cc(C)c(C(=O)C(=O)NC23C(=O)c4c(N)cccc4C2(O)Oc2cc(C(C)C)ccc23)c(C)c1 (centres unmarked) [Example 54, N-(1-amino-4b-hydroxy-7-isopropyl-10-oxo-4b, 10-dihydro-9bH-indeno[1,2-b]benzofuran-9b-yl)-2-mesityl-2-oxo acetamide] | < 0.1 | < 0.1 | < 10 | < 1 | > 10 | > 8.6 | 8.6 (≈ 17.7 µM) | > 8.6
3 | CC(C)c1ccc2c(c1)OC1(O)c3ccccc3C(=O)C21NC(=O)C(=O)c1cccs1 (centres unmarked) [Example 2, N-(4b-hydroxy-7-isopropyl-10-oxo-9b, 10-dihydro-4bH-indeno[1,2-b]benzofuran-9b-yl)-2-oxo-2-(thiopen-2-yl)acetamide] | < 0.01 | < 0.01 | < 1 | < 0.1 | 9.02 (≈ 20.8 µM) | > 8.57 | 8.57 (≈ 19.8 µM) | > 8.57
4 | CCCNC(=O)OC12C(=O)c3ccccc3C1(O)Oc1cc(C(C)C)ccc12 (centres unmarked) [Example 18, 4b-hydroxy-7-isopropyl-10-oxo-4b, 10-dihydro-9bH-indeno[1,2-b]benzofuran-9b-yl propyl carbamate] | < 10 | < 10 | > 10 | > 10 | > 10 | > 10 | > 10 | > 10
5 | CSCCC(=O)C(=O)NC12C(=O)c3ccccc3C1(O)Oc1cc(C(C)C)ccc12 (centres unmarked) [Example 17, N-(4b-hydroxy-7-isopropyl-10-oxo-9b, 10-dihydro-4bH-indeno[1,2-b]benzofuran-9b-yl)-4-(methylthio)-2-oxo butanamide] | 0.067 (≈ 0.157 µM) | 0.033 (≈ 0.0776 µM) | 2.61 (≈ 6.13 µM) | 6.99 (≈ 16.4 µM) | > 10 | > 10 | > 10 | > 10
6 | CC(C)CC(=O)C(=O)NC12C(=O)c3c(N)cccc3C1(O)Oc1cc(C(C)C)ccc12 (centres unmarked) [Example 49, N-(1-amino-4b-hydroxy-7-isopropyl-10-oxo-4b, 10-dihydro-9bH-indeno[1,2-b]benzofuran-9b-yl)-4-methyl-2-oxo pentanamide] | < 0.01 | < 0.01 | < 0.1 | < 0.1 | > 10 | > 10 | > 10 | > 10
7 | CC(C)c1ccc2c(c1)OC1(O)c3cccc(N)c3C(=O)C21NC(=O)C(=O)N(C)C (centres unmarked) [Example 31, N1-(1-amino-4b-hydroxy-7-isopropyl-10-oxo-4b, 10-dihydro-9bH-indeno[1,2-b]benzofuran-9b-yl)-N2, N2-dimethyl oxal amide] | < 0.01 | < 0.01 | < 0.1 | 0.012 (≈ 0.0293 µM) | > 10 | 73 (≈ 178 µM) | > 10 | < 10
8 | CC(=N)NC12C(=O)c3ccccc3C1(O)Oc1cc(C(C)C)ccc12 (centres unmarked) [Example 60, N-(4b-hydroxy-7-isopropyl-10-oxo-4b, 10-dihydro-9bH-indeno[1,2-b]benzofuran-9b-yl)acetimide amide] | < 10 | < 1 | > 10 | < 10 | > 10 | > 10 | > 10 | > 10
9 | CCCCCCC(=O)C(=O)NC12C(=O)c3ccccc3C1(O)Oc1cc(C(C)C)ccc12 (centres unmarked) [Example 6, N-(4b-hydroxy-7-isopropyl-10-oxo-9b, 10-dihydro-4bH-indeno[1,2-b]benzofuran-9b-yl)-2-oxo octanamide] | 0.015 (≈ 0.0344 µM) | 0.013 (≈ 0.0298 µM) | 1.23 (≈ 2.82 µM) | < 1 | 8.57 (≈ 19.7 µM) | > 8.57 | 8.57 (≈ 19.7 µM) | > 8.57
10 | CC(C)c1ccc2c(c1)OC1(O)c3ccccc3C(=O)C21NC(=O)C(=O)c1ccccc1 (centres unmarked) [Example 15, N-(4b-hydroxy-7-isopropyl-10-oxo-9b, 10-dihydro-4bH-indeno[1,2-b]benzofuran-9b-yl)-2-oxo-2-phenyl acetamide] | < 0.01 | < 0.01 | < 1 | < 1 | 8.8 (≈ 20.6 µM) | > 8.72 | 8.72 (≈ 20.4 µM) | > 8.72
